Data reported in patent US20090239926A1, “METHODS FOR THE TREATMENT OF PSORIASIS OR PSORIATIC ARTHRITIS USING CYCLOPROPYL-N-CARBOXAMIDE” (priority 2008, published 2009).
Where “and” joins values, the source holds several entries; their conditions need not be identical. Equal entries are not always repeated.

Experiments:
[1] = test system: mAB/LPS-induced experimental arthritis in male BALB/c mice; assay: mAb/LPS-induced mice arthritis model; type: in vivo
Experimental: Treatment Regimen: Compound A was administered by oral gavage (PO), using a suitable stainless steel feeding needle. Enbrel (Reference Item) was administrated by intraperitoneal (IP) injections. Compound A was first administered on study Day 3 (one hour prior to the single LPS injection) and thereafter on Days 4, 5, 6, 7, 8, 9, 10, 11, 12 and 13 (total of 11 successive treatment days) at 1, 5 and 25 mg/kg once daily. Compound A treated groups comprised n=8 BALB/c male mice per dosing group. In addition, two equally sized groups were treated with either Enbrel (5 mg/kg/day, Reference Item), or a solution of 0.5% Na CMC/0.25% Tween 80 (PO, 5 ml/kg, Vehicle Control).
Arthritis Reactions: Both hind paws (left and right) of each animal were examined for signs of arthritogenic responses prior to arthritis induction (Day 0) and thereafter on study days 4, 5, 6, 7, 9, 11 & 14 as selected by the Sponsor. Arthritis reactions were scored and recorded according to a 0-4 scale in ascending order of severity (based on Morwell MD Biosciences Inc. brochure) as shown in Table 1.
Measurements of Experimental Arthritis: Hind paw thickness was determined on eight days using a Mitutoyo Electronic Digital Caliper (on Days 0, 4, 5, 6, 7, 9, 11 and 14) and presented as mean group values of the average for both left and right hind paws.

[2] = target: T1, PDE3 from human platelets (Homo sapiens, UniProt Q14432); assay: Specificity: PDE3; type: biochemical
T1 construct: PDE3 and PDE5 from human platelets; from tissue; host or cells: human platelets
T1 sequence (Q14432 whole entry): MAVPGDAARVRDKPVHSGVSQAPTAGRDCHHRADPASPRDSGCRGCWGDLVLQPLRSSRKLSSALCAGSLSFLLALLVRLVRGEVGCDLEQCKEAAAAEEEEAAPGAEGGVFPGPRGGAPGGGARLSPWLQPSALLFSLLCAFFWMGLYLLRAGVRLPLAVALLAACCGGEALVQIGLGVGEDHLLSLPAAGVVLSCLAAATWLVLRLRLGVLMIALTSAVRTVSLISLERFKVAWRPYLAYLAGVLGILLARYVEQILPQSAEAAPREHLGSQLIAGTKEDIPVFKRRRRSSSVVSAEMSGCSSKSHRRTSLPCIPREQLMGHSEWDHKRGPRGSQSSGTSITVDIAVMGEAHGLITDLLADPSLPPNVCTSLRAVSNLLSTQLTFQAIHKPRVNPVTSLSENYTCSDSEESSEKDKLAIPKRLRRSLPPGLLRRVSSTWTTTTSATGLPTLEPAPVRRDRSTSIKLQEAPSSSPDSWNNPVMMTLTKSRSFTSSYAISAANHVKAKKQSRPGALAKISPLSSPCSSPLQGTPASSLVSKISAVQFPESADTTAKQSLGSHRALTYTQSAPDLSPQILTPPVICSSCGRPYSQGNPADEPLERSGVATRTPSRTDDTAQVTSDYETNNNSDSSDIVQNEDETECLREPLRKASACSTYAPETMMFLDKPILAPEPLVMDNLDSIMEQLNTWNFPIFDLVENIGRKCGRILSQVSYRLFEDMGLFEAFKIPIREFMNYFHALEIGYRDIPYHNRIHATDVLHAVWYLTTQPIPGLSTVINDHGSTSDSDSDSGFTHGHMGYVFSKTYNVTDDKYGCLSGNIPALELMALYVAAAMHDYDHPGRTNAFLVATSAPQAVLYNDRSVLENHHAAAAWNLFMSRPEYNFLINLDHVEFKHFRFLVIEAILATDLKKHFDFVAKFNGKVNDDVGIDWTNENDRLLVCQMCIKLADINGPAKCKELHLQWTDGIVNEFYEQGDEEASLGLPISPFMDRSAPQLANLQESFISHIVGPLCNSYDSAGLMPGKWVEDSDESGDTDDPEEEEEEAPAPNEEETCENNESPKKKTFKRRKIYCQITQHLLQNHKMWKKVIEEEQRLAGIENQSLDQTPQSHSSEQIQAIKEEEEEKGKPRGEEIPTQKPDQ
Experimental: (§1) The specificity of Compound A for PDE4 was assessed by testing at a single concentration (10 μM) against bovine PDE1, human PDE2, PDE3 and PDE5 from human platelets, and PDE6 from bovine retinal rod outer segments.

[3] = test system: LPS-stimulated monocyte TNF-α production; assay: LPS-induced TNF-α production in monocytes; type: cell-based; settings: Homo sapiens, LPS 10 ng/ml, 24 hours
Experimental: LPS-induced TNF-α production in Monocytes: Monocytes separated from human peripheral blood mononuclear cells (PBMCs) were plated into a 96-well flat bottom plate at 1×10^5/well in RPMI (5% heat inactivated fetal calf serum (FCS) and then treated with increasing concentrations of Compound A and control (in triplicate). Following a 30 minute pre-incubation period, the monocytes were stimulated with LPS (10 ng/ml) and cultured for 24 hours at 37° C. in 5% CO2. The supernatants are then harvested and analyzed by ELISA.

[4] = test system: Lymph node cells (LNC); assay: Lymph node cells of collagen-immunized mice stimulated in vitro with type II collagen or anti-CD3 mAb; type: cell-based; settings: FIG. 6
From the text: Ex Vivo Procedure: Mice were bled and lymph nodes were excised. Lymph node cells (LNC) were stimulated in vitro with antigen (type II collagen) or mitogen (anti-CD3 mAb) in the presence of Compound A.

[5] = test system: bovine PDE1; assay: Specificity: PDE1; type: biochemical; settings: at 10 μM
Experimental: as §1

[6] = test system: CD11b expression on neutrophils; assay: fMLF-induced neutrophil CD11b expression; type: cell-based; settings: Homo sapiens, 0.5 h, 30 nM fMLF, 30 minutes, flow cytometry
Experimental: CD18/CD11b (Mac-1) expression on neutrophils was measured with the following modifications. (Derian, C. K., et al., J Immunol, 1995. 154(1): 308-17). Neutrophils were isolated as described above, then resuspended in complete medium at 1×10^6 cells/ml, pretreated with Compound A at 10, 1, 0.1, 0.01, and 0 μM in duplicate at a final DMSO concentration of 0.1% for 10 minutes at 37° C. 5% CO2. Cells were then stimulated with 30 nM fMLF for 30 minutes and then chilled to 4° C. Cells were treated with rabbit IgG (Jackson ImmunoResearch Labs, West Grove, Pa., USA) (10 μg/1×10^6 cells) to block Fc receptors, stained with CD18-FITC and CD11b-PE (Becton Dickinson), and analyzed by flow cytometry on a FACSCalibur. CD18/CD11b expression (mean fluorescence) in the absence of stimulation was subtracted from all samples to obtain inhibition curves and calculate IC50.

[7] = test system: LPS-induced serum TNF-α in female BALB/c mice; assay: Mouse LPS-induced serum TNF-α production; type: in vivo; settings: po
Experimental: Mouse LPS-induced serum TNF-α production: Compound A was administered to female BALB/c mice orally by gavage two hours prior to LPS challenge. Blood was drawn 1.5 hours after LPS challenge, and serum TNF-α was measured as described above.

[8] = Compound A 1 mg/kg/day PO, Day 0 (prior to arthritis induction)
[9] = Compound A 1 mg/kg/day PO, Day 4
[10] = Compound A 1 mg/kg/day PO, Day 5
[11] = Compound A 1 mg/kg/day PO, Day 6
[12] = Compound A 1 mg/kg/day PO, Day 7
[13] = Compound A 1 mg/kg/day PO, Day 9
[14] = Compound A 1 mg/kg/day PO, Day 11
[15] = Compound A 1 mg/kg/day PO, Day 14
[16] = Compound A 5 mg/kg/day PO, Day 0 (prior to arthritis induction)
[17] = Compound A 5 mg/kg/day PO, Day 4
[18] = Compound A 5 mg/kg/day PO, Day 5
[19] = Compound A 5 mg/kg/day PO, Day 6
[20] = Compound A 5 mg/kg/day PO, Day 7
[21] = Compound A 5 mg/kg/day PO, Day 9
[22] = Compound A 5 mg/kg/day PO, Day 11
[23] = Compound A 5 mg/kg/day PO, Day 14
[24] = Compound A 25 mg/kg/day PO, Day 0 (prior to arthritis induction)
[25] = Compound A 25 mg/kg/day PO, Day 4
[26] = Compound A 25 mg/kg/day PO, Day 5
[27] = Compound A 25 mg/kg/day PO, Day 6
[28] = Compound A 25 mg/kg/day PO, Day 7

`CCOc1cc([C@@H](CS(C)(=O)=O)N2Cc3cccc(NC(=O)C4CC4)c3C2=O)ccc1OC` [Compound A, cyclopropyl-N-{2-[(1S)-1-(3-ethoxy-4-methoxyphenyl)-2-(methylsulfonyl)ethyl]-3-oxoisoindoline-4-yl}carboxamide] was tested, and the “Arthritis Scoring, mean of both hind paws (0-4 scale)” value (shortened to “Arthritis Scoring, mean”) [1, 8] was 0, the “Hind Paws Thickness, group mean” value [1, 8] was 2.2 mm and the “Arthritis Scoring, mean” value [1, 9] was 0. For the same compound, the “Hind Paws Thickness, group mean” value [1, 9] was 2.2 mm, the “Percentage Change in Hind Paw Thickness vs. Study Commencement (Day 0), group mean” value (“Percentage Change” below) [1, 9] was 1% and the “Arthritis Scoring, mean” value [1, 10] was 1. The “Hind Paws Thickness, group mean” value [1, 10] was 2.4 mm, the “Percentage Change” value [1, 10] was 8% and the “Arthritis Scoring, mean” value [1, 11] was 2. The “Hind Paws Thickness, group mean” value [1, 11] was 2.7 mm, the “Percentage Change” value [1, 11] was 24% and the “Arthritis Scoring, mean” value [1, 12] was 2. For the same compound, the “Hind Paws Thickness, group mean” value [1, 12] was 2.8 mm, the “Percentage Change” value [1, 12] was 27% and the “Arthritis Scoring, mean” value [1, 13] was 2. The “Hind Paws Thickness, group mean” value [1, 13] was 2.7 mm, the “Percentage Change” value [1, 13] was 23% and the “Arthritis Scoring, mean” value [1, 14] was 1. The “Percentage Change” value [1, 14] was 13%, the “Arthritis Scoring, mean” value [1, 15] was 1 and the “Hind Paws Thickness, group mean” value [1, 15] was 2.4 mm. For the same compound, the “Percentage Change” value [1, 15] was 7%, the “Arthritis Scoring, mean” value [1, 16] was 0 and the “Hind Paws Thickness, group mean” value [1, 16] was 2.2 mm. For the same compound, the “Arthritis Scoring, mean” value [1, 17] was 0, the “Hind Paws Thickness, group mean” value [1, 17] was 2.2 mm and the “Percentage Change” value [1, 17] was 1%. The “Arthritis Scoring, mean” value [1, 18] was 1, the “Hind Paws Thickness, group mean” value [1, 18] was 2.5 mm and the “Percentage Change” value [1, 18] was 12%. The “Arthritis Scoring, mean” value [1, 19] was 2, the “Hind Paws Thickness, group mean” value [1, 19] was 2.8 mm and the “Percentage Change” value [1, 19] was 30%. The “Arthritis Scoring, mean” value [1, 20] was 2, the “Hind Paws Thickness, group mean” value [1, 20] was 2.8 mm and the “Percentage Change” value [1, 20] was 30%. For the same compound, the “Arthritis Scoring, mean” value [1, 21] was 2, the “Hind Paws Thickness, group mean” value [1, 21] was 2.7 mm and the “Percentage Change” value [1, 21] was 21%. The “Arthritis Scoring, mean” value [1, 22] was 1, the “Percentage Change” value [1, 22] was 15% and the “Arthritis Scoring, mean” value [1, 23] was 1. The “Hind Paws Thickness, group mean” value [1, 23] was 2.5 mm, the “Percentage Change” value [1, 23] was 13% and the “Arthritis Scoring, mean” value [1, 24] was 0. The “Hind Paws Thickness, group mean” value [1, 24] was 2.2 mm, the “Arthritis Scoring, mean” value [1, 25] was 0 and the “Hind Paws Thickness, group mean” value [1, 25] was 2.2 mm. For the same compound, the “Percentage Change” value [1, 25] was 0%, the “Arthritis Scoring, mean” value [1, 26] was 1 and the “Hind Paws Thickness, group mean” value [1, 26] was 2.4 mm. For the same compound, the “Percentage Change” value [1, 26] was 8%, the “Arthritis Scoring, mean” value [1, 27] was 2 and the “Hind Paws Thickness, group mean” value [1, 27] was 2.7 mm. For the same compound, the “Percentage Change” value [1, 27] was 21%, the “Arthritis Scoring, mean” value [1, 28] was 2 and the “Hind Paws Thickness, group mean” value [1, 28] was 2.7 mm. For the same compound, the “Percentage Change” value [1, 28] was 21%, the “Arthritis Scoring, mean” value ([1]; Compound A 25 mg/kg/day PO, Day 11) was 1 and the inhibition at 10 µM [2] was 9%. The IC50 [3] was 40 nM, the “production of the Th2 cytokine IL-5” value [4] was “unaffected” and the IFN-γ production ([4]; dose-dependent) was “inhibited”. The T cell proliferation ([4]; dose-dependent) was “inhibited”, the TNF-α production ([4]; dose-dependent) was “inhibited” and the PDE1 % inhibition [5] was 30%. For the same compound, the IC50 [6] was 30 nM and 0.014 µg/mL, the inhibition at 0.1 mg/kg ([7]; 2 h, 0.1 mg/kg p.o., two hours prior to LPS, n=2, read-out: inhibition of mouse LPS-induced serum TNF-α levels) was 3% and the inhibition at 1 mg/kg ([7]; 2 h, 1 mg/kg p.o., two hours prior to LPS, n=2, read-out: inhibition of mouse LPS-induced serum TNF-α levels) was 83%. For the same compound, the ED50 ([7]; read-out: Mouse LPS-induced serum TNF-α inhibition ED50) was 0.1 to 1 mg/kg.
